# Test results: patent publication US20160317531A1, “RIBONUCLEOTIDE REDUCTASE INHIBITORS SENSITIZE TUMOR CELLS TO DNA DAMAGING AGENTS” (THE GENERAL HOSPITAL CORPORATION, priority 2013, published 2016)
# How the values were obtained:
# Notch signalling = assay: RBP-Jk-Fluc reporter assay in 293T cells; format: cell-based
# Experimental: 293T cells were infected with lenti-RBP-Jk-Fluc vector and treated with 50 μM HU or γ-secretase inhibitor DAPT for […]. Cell lysates was imaged and analyzed for Fluc activity with the Xenogen IVIS 200 Imaging System. **p<0.01 vs. DMSO (n=8 for DMSO, n=5 for HU or DAPT treatment).
# (§1) Since HU is known to target ribonucleotide reductase subunit 2 (RNR), knockdown experiment was first performed in different cell lines using shRNA against RNR (shRNR) or scrambled control (ShScram) and different concentrations of TMZ. […] Other ribonucleotide reductase (RNR) inhibitors were further evaluated to determine if a similar effect as HU is obtained on GBM. GBM cells from recurrent tumors expressing Gluc were treated in a 96-well plate with either fludarabine or gemcitabine—classical RNR inhibitors—and cell viability was assessed by the Gluc assay. […] The RBP-Jk-Fluc reporter plasmid which carries RBP-Jk transcriptional response element driving the expression of Fluc34 was used. RBP-Jk is a DNA binding transcription factor and a direct downstream modulator of Notch signalling. Thus, this reporter can indirectly monitor Notch activity (Minoguchi, S., et al., Mol Cell Biol 1997, 17, 2679-2687). 293T cells were transfected with this plasmid, treated with 30 μM HU, and monitored Fluc activity 3 days later.
# [1] = tested on: U87R1, U87R2, SNZ308R1, SNZ308R2, HS683R1 and HS683R2 TMZ-resistant cells; assay: Gluc cell viability assay, TMZ-resistant glioma subclones; format: cell-based
# Experimental: (§2) FIG. 1A is a set of graphs showing the effects of TMZ on tumor cells. U87, SNZ308, HS683 parental cells (P) and resistant clones (Res) were treated with different amounts of TMZ. After four days aliquots of conditioned medium were assayed for Gluc activity using 50 μl 2 μg/ml coelenterazine.
# FIG. 1B is a set of graphs showing the effects of TMZ+HU on tumor cells. U87 and resistant clones R1/R2 were treated with TMZ and/or 100 μM HU. Cell viability was assessed by the Gluc assay.
# The inventors previously generated two independent TMZ-resistant subclones from three different glioma cell lines (U87, SNZ308 and HS683) by long-term exposure (two times per week over seven weeks) to 100 μM TMZ, generating U87R1, U87R2, SNZ308R1, SNZ308R2, HS683R1 and HS683R2. These cells together with their parental counterparts were first engineered by lentivirus vector transduction to stably express the naturally secreted Gaussia luciferase (Gluc) as a reporter for cell viability. […] In this case, cell viability can be monitored over time by assaying aliquots of conditioned medium from these cells for Gluc activity. […] Using the U87R1 and U87R2 TMZ-resistant cells and the Gluc high-throughput screening assay (Badr, C. E., et al., Assay Drug Dev Technol, 2011 9, 281-289), a small library of 100 known anti-cancer agents was screened in the presence and absence of 100 μM TMZ. […]
# [2] = for certain chemotherapeutics; cited from earlier work
# malignant gliomas = details: in combination with radiation or cytotoxic chemotherapy, not TMZ; cited from earlier work
# melanoma cells = assay: Sensitization of melanoma cells to TMZ; format: cell-based; details: FIG. 7
# U87 tumors = assay: Intracranial U87-Fluc tumor model, Fluc imaging and survival; details: 5 mg/kg TMZ i.p., 50 mg/kg HU i.p., start one week post-implantation
# [3] = format: in vivo; details: mice treated four consecutive days; HU 30 mg/kg, TMZ 30 mg/kg
# Experimental: Primary GBM8 cells24 (from newly diagnosed tumor with methylated MGMT (Wakimoto, H., et al., Neuro Oncol 2012, 14, 132-144)) were grown in stem cell media as neural spheres. […] Upon intracranial injection, these cells formed tumors and infiltrated the brain of nude mice similar to human tumors (FIGS. 4A-4C). This model was used to test the efficacy of HU in combination with TMZ. Four weeks after implantation of 100,000 GBM8 cells, when tumors started to rapidly grow (as observed by Fluc imaging), mice were divided into two groups (n=20/group) which received DMSO vehicle or i.p. injection of 30 mg/kg TMZ four days/week over two weeks. […] Mice were then left off TMZ to allow for GBM tumors to recur potentially becoming resistant to TMZ, recapitulating the patient scenario. […] Next, the toxicity of this combined therapy was assessed by treating mice with either DMSO, TMZ, HU, or HU+TMZ for four consecutive days and analyzing the blood for white blood cells (WBC), hematocrit (HCT), mean corpuscular volume (MCV), red cell distribution width (RDW), hemoglobin (HGB), mean corpuscular hemoglobin (MCH), red blood cells (RBC), platelets (PLT), and mean platelet volume (MPV). […] Hematotoxicity on bone marrow was also evaluated by preparing bone marrow smears and counting viable cells from untreated and TMZ/HU-treated naïve mice as above.
# U87R1 tumors = assay: Intracranial U87R1-Fluc (TMZ-resistant) tumor model, Fluc imaging and survival; details: 5 mg/kg TMZ i.p., 50 mg/kg HU i.p., start one week post-implantation
# Experimental: U87R1 cells (20,000 cells/mouse) expressing Fluc were implanted in the brain of nude mice. One week later, mice were divided in four groups (n=10-20/group) and treated with 1). DMSO vehicle as control, 2). 50 mg/kg HU, 3). 5 mg/kg TMZ or 4). 5 mg/kg TMZ+50 mg/kg HU. In FIG. 2E, tumor growth was monitored over time by Fluc imaging. […] In FIG. 2F, survival was recorded to generate the Kaplan-Meier plot.
# 200,000 U87R1 cells expressing Fluc were implanted in the brain of nude mice. Two weeks later, mice were divided in two groups (n=10/group) and treated with either TMZ or TMZ+HU. Survival was recorded.
# U87R1 cells expressing Fluc were implanted in the brain of nude mice. One week later, mice were divided in four groups (n=10-20/group) and treated with either DMSO vehicle, radiation (R; 3 Gy), HU, TMZ or R+TMZ+HU. Tumor growth was monitored over time by Fluc imaging and survival was recorded to generate the Kaplan-Meier plot.
# U87 or U87R1 cells were first transduced with a lentivirus vector to stably express firefly luciferase (Fluc), a reporter which can be used to track tumor growth in vivo (Wurdinger, T., et al., Nat Methods 2008, 5, 171-173). Fifty thousands of these cells were intracranially injected in the brain of nude mice as previously described. One week post-tumor implantation, mice were randomized into four different groups receiving: (1) DMSO vehicle control; (2) intraperitoneal (i.p) injection of 5 mg/kg TMZ; (3) 50 mg/kg HU i.p.; (4) combination of TMZ+HU. Tumor growth was monitored over time by in vivo Fluc bioluminescence imaging using a cooled CCD camera (Wurdinger, T., et al., Nat Methods 2008, 5, 171-173). […]
# GBM cells were first transduced with a lentivirus vector to stably express Fluc. […] Tumor growth was monitored over time by in vivo Fluc bioluminescence imaging after i.p. injection of 200 mg/kg D-luciferin substrate and acquiring signal using a cooled CCD camera (Wurdinger, T., et al., Nat Methods 2008, 5, 171-173).
# [4] = tested on: U87, SNZ308, HS683 parental cells; assay: Gluc cell viability assay, parental glioma cell lines; format: cell-based; details: different amounts of TMZ, four days
# Experimental: as §2
# The inventors previously generated two independent TMZ-resistant subclones from three different glioma cell lines (U87, SNZ308 and HS683) by long-term exposure (two times per week over seven weeks) to 100 μM TMZ, generating U87R1, U87R2, SNZ308R1, SNZ308R2, HS683R1 and HS683R2. These cells together with their parental counterparts were first engineered by lentivirus vector transduction to stably express the naturally secreted Gaussia luciferase (Gluc) as a reporter for cell viability. […] In this case, cell viability can be monitored over time by assaying aliquots of conditioned medium from these cells for Gluc activity. […] Using the U87R1 and U87R2 TMZ-resistant cells and the Gluc high-throughput screening assay (Badr, C. E., et al., Assay Drug Dev Technol, 2011 9, 281-289), a small library of 100 known anti-cancer agents was screened in the presence and absence of 100 μM TMZ. […] The same results were obtained when HU was used in combination with TMZ on SNZ308 and HS683 resistant lines (data not shown).
# [5] = tested on: GBM8 tumors carrying methylated MGMT promoter; assay: Intracranial primary GBM8-Fluc-mCherry tumor model; format: in vivo, nude mice
# Experimental: FIG. 4A is an image showing that 10^5 GBM8 cells expressing Fluc and mCherry were stereotactically injected into the left midstriatum of nude mice brain.
# FIG. 4D is a set of images showing the in vivo effects of TMZ+HU treatments on mice. Mice-bearing GBM8-Fluc-mCherry tumors were treated with TMZ or vehicle for two weeks, then left off TMZ for three weeks. TMZ-treated group was then divided into four subgroups which received vehicle, HU, TMZ, or HU+TMZ.
# Primary GBM8 cells24 (from newly diagnosed tumor with methylated MGMT (Wakimoto, H., et al., Neuro Oncol 2012, 14, 132-144)) were grown in stem cell media as neural spheres. […] Upon intracranial injection, these cells formed tumors and infiltrated the brain of nude mice similar to human tumors (FIGS. 4A-4C). This model was used to test the efficacy of HU in combination with TMZ. Four weeks after implantation of 100,000 GBM8 cells, when tumors started to rapidly grow (as observed by Fluc imaging), mice were divided into two groups (n=20/group) which received DMSO vehicle or i.p. injection of 30 mg/kg TMZ four days/week over two weeks. […] Mice were then left off TMZ to allow for GBM tumors to recur potentially becoming resistant to TMZ, recapitulating the patient scenario. At this point, the TMZ group was divided into four subgroups (n=10/group) which received either DMSO, HU (50 mg/kg), TMZ (30 mg/kg) or HU+TMZ four days/week over three weeks. […] Next, the toxicity of this combined therapy was assessed by treating mice with either DMSO, TMZ, HU, or HU+TMZ for four consecutive days and analyzing the blood for white blood cells (WBC), hematocrit (HCT), mean corpuscular volume (MCV), red cell distribution width (RDW), hemoglobin (HGB), mean corpuscular hemoglobin (MCH), red blood cells (RBC), platelets (PLT), and mean platelet volume (MPV). No significant difference between different treated groups in comparison to DMSO control was found (Table 1). Hematotoxicity on bone marrow was also evaluated by preparing bone marrow smears and counting viable cells from untreated and TMZ/HU-treated naïve mice as above.
# GBM = details: cited from earlier work
# [6] = tested on: TMZ-resistant primary glioma rpGBMa cells; assay: Gluc cell viability assay, recurrent GBM cells with RNR inhibitors and TMZ; format: cell-based; details: GBM cells from recurrent tumors, four days
# Experimental: FIG. 5A is a plot showing that glioma cells are sensitized to TMZ by ribonucleotide reductase inhibition. 3×10^3 TMZ-resistant primary glioma rpGBMa cells expressing Gluc were treated with […] of ribonucleotide reductase (RNR) inhibitor Fludarabine or Gemcitabine, in the presence or absence of 100 μM TMZ. After four days aliquots of conditioned medium were assayed for Gluc activity using 50 μl 2 μg/ml coelenterazine. Data presented as the mean Gluc RLU/mL +/−SD (n=8; **p<0.01 vs. no TMZ treatment by two-way ANOVA).
# as §1, with “RBP-Jk is a DNA binding transcription factor and a direct downstream modulator of Notch signalling. Thus, this reporter can indirectly monitor Notch activity (Minoguchi, S., et al., Mol Cell Biol 1997, 17, 2679-2687).” left out
# [7] = second round, HU 50 mg/kg, TMZ 30 mg/kg, four days/week over three weeks
compound,measurement,setting,value
C[C@H](NC(=O)Cc1cc(F)cc(F)c1)C(=O)N[C@H](C(=O)OC(C)(C)C)c1ccccc1 [DAPT],change of Fluc activity,Notch signalling; γ-secretase inhibition,decrease of Fluc activity similar to HU
"NC(=O)NO [HU, hydroxyurea]",sensitization of resistant cells to TMZ,"[1]; U87R1 and U87R2, 100 μM HU, TMZ",sensitize both resistance cell lines to TMZ
same,decrease in Fluc activity,"Notch signalling; 30 μM HU, 3 days",50%
same,effect on blood brain tumor permeability,[2],increases the blood brain tumor permeability of certain chemotherapeutics
same,efficacy in malignant gliomas,malignant gliomas,limited efficacy
same,sensitization of melanoma cells to TMZ,melanoma cells,sensitizes melanoma cells to TMZ
same,mice survival,U87 tumors,no significant effect
same,tumor growth (Fluc bioluminescence imaging),U87 tumors,no significant effect
same,MPV,[3],6.3 ± 0.4
same,mice survival,U87R1 tumors,no significant effect
same,tumor growth (Fluc bioluminescence imaging),U87R1 tumors,no significant effect
"Cn1nnc2c(C(N)=O)ncn2c1=O [TMZ, 4-methyl-5-oxo-2,3,4,6,8-pentazabicyclo[4.3.0]nona-2,7,9-triene-9-carboxamide]",cell viability (Gluc activity) on exposure to TMZ,"[1]; resistant cell lines, up to 100 μM TMZ",no significant effect
same,cell viability (Gluc activity) on exposure to TMZ,[4],sensitive to TMZ in a dose-dependent fashion
same,"tumor response, first round of treatment","[5]; 30 mg/kg TMZ i.p. four days/week over two weeks, start four weeks after implantation",responded very well
same,"survival rate, recurred tumors after TMZ break",[5]; [7],not a significant increase
same,"tumor volume / tumor growth, recurred tumors after TMZ break",[5]; [7],moderate effect
same,median survival,"GBM; TMZ added to standard of care including surgery and radiation, 12.1 months without",14.6 months
same,patients who die after 5 years,GBM; patients receiving both TMZ and radiation,90%
same,overall 2 years survival,"GBM; randomized phase III, combined therapy, 10.9% without",27.2%
same,mice survival,U87 tumors,moderate effect
same,tumor growth (Fluc bioluminescence imaging),U87 tumors,moderate effect
same,MPV,[3],6.5 ± 0.4
same,tumor growth (Fluc bioluminescence imaging),U87R1 tumors,not on U87R1 tumors
same,"cell viability (Gluc assay), TMZ alone",[6]; 100 μM TMZ,moderate-to-no effect
"Nc1ccn([C@@H]2O[C@H](CO)[C@@H](O)C2(F)F)c(=O)n1 [gemcitabine, 4-amino-1-(2-deoxy-2,2-difluoro-β-D-erythro-pentofuranosyl)pyrimidin-2(1H)-on]",sensitization of GBM cells to TMZ,[6]; RNR inhibitor in presence or absence of 100 μM TMZ,sensitized GBM cells to TMZ
